Source: patent US20080058636A1, “METHODS OF MYOCARDIAL IMAGING” (Epix Pharmaceuticals, Inc., priority 2005, published 2008)
Values belong to the molecule of their own block, whether it stands above or below them.

What was measured:
infarcted myocardium [1] = test: Mouse model of chronic infarction, MR imaging; conditions: mice with 7 day, 40 day or 210 day infarcts, 25 μmol/kg i.v.
[2] = In vivo heart uptake in mice, gadolinium by ICP-MS (tail vein); design: species or system BALB/c mice; conditions: mouse, 10 μmol/kg tail vein, 15 minutes post-injection
Method: In vivo heart uptake of these two compounds were also compared. […] The animals were sacrificed at 15 minutes post-injection. The organs were immediately removed and rinsed in saline, and then blotted dry. […] Both compounds have similar concentrations in the blood.

infarcted myocardium [3] = test: Myocardial infarction MR imaging in mouse (7 days post MI); conditions: 25 μmol/kg i.v.
[4] = system: perfused Langendorff rat heart; test: Washout kinetics from perfused Langendorff rat heart
Method: A K-H buffer filled 20 Gauge needle was inserted into the apex of the heart penetrating into the bottom of the chamber. This was attached to a pressure transducer used to record and monitor heart function. Perfusion pressure (60 mmHg) was monitored using a second transducer. The heart was perfused at a constant flow rate of 10-12 mL/min with 37° C. […] The heart was paced at 300 beats/min.
A Langendorff rat heart preparation was perfused with K-H buffer at a rate of 10-12 mL/min. […] After the infusion was finished, the heart was either removed or perfusion was allowed to continue for an additional 10 minutes and then the heart was removed. The perfusion buffer was not recirculated through the heart. After removal of any connective tissue, the heart was opened, fluid in the chambers drained, and the interior blotted dry with filter paper. […] An aliquot of the K-H buffer was also weighed and counted. Concentration estimates were decay corrected. Studies were performed at least in duplicate.

rat type I collagen gel = molecular target: T1, rat type I collagen gel (Rattus norvegicus, UniProt P02454+P02466); test: MR phantom imaging of collagen gel samples at 4.7 T
T1 construct: Rat collagen (acid soluble, type I, rat tail, Upstate USA, Inc, cat# 08-115); purchased Upstate USA, Inc 08-115; host or cells: rat tail (tissue extract)
T1 sequence (P02454 152-1207 limits assumed): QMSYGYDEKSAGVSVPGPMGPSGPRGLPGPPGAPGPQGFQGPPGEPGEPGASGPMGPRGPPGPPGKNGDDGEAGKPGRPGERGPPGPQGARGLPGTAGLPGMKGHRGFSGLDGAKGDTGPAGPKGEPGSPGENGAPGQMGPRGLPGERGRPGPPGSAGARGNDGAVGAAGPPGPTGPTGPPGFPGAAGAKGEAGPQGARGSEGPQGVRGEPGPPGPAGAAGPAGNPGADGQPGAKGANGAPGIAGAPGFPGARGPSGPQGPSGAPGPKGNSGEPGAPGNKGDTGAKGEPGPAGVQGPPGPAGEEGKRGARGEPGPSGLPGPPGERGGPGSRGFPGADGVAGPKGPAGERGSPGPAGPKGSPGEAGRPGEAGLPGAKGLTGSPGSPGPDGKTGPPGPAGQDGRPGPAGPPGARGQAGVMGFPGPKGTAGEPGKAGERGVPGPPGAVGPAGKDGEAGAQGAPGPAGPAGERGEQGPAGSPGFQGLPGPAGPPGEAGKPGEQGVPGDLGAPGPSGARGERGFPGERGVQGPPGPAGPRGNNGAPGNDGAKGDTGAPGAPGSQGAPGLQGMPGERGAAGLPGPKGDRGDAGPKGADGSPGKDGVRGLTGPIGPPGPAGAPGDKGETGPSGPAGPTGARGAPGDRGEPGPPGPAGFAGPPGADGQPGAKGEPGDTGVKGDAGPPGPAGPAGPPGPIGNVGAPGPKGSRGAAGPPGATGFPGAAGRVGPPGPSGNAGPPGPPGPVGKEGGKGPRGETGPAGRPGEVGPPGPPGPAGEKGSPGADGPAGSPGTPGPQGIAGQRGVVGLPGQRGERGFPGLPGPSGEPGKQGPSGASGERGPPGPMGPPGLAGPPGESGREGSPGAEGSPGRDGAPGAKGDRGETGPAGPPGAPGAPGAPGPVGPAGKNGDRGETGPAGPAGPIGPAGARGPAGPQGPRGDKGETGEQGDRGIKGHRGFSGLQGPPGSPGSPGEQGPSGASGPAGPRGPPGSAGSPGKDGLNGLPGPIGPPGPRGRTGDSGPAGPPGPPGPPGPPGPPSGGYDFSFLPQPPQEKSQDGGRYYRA
T1 sequence (P02466 86-1125 limits assumed): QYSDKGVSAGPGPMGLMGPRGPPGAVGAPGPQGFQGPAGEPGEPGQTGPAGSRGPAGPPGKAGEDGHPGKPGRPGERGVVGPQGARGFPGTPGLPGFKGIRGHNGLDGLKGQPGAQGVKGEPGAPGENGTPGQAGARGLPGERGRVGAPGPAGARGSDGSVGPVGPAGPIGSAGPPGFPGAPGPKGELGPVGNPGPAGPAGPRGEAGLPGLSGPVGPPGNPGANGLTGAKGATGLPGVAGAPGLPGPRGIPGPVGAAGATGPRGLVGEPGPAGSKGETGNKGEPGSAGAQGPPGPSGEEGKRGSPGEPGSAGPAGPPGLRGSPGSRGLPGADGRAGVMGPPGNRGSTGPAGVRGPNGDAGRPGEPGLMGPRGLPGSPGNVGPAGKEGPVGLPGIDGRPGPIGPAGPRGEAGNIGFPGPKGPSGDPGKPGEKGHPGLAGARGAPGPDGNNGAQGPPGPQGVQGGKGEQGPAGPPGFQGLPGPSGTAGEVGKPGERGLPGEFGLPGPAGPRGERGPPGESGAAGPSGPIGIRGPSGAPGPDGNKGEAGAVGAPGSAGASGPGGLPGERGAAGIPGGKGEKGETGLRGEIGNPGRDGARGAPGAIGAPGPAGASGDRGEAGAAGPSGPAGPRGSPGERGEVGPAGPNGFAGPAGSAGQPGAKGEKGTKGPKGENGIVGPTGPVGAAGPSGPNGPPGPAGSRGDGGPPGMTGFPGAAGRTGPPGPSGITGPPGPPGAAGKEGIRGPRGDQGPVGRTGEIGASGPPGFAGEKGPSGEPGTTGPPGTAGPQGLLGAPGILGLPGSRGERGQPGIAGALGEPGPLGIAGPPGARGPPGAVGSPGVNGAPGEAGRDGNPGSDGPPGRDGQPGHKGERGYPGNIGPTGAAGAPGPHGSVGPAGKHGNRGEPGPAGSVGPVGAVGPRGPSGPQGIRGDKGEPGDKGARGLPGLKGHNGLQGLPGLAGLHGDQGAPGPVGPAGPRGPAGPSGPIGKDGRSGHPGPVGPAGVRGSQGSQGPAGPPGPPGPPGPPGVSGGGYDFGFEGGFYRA
Method: (§1) Samples: • 1. […] Sample prepared as sample 2, but centrifuged to separate insoluble rat collagen gel • 5. Sample prepared as sample 3, but centrifuged to separate insoluble human collagen gel • 6. 27 μM GdDTPA solution in PBS, pH 7.4 • 7. 27 μM GdDTPA in a solution of 5.0 μM rat type I collagen in 10 mM phosphate buffer, pH 5 incubated at 37° C. overnight to form a gel • 8. Sample prepared as in sample 7, but centrifuged to separate insoluble rat collagen gel • 9. Homogeneous gel of 5 μM rat collagen • 10. Homogeneous gel of 7.5 μM human collagen
Samples for imaging were placed in glass tubes that were in turn placed in tubes containing water. Images were acquired at 4.7 T on a Bruker Biospec Imager using a Multi-Slice Multi-Echo Method with variable Relaxation Delay (MSMEVTR) experiment. The spin echo time and the relaxation delay were set to TE=11.2 ms and TR=500 ms, respectively with a flip angle of 30°. Images were acquired of sample 2, sample 4, sample 7, and sample 8. […] Sample 7 and 8 show uniform signal intensity.

[5] = MR phantom study: T1 of samples at 0.47 Tesla; type: physicochemical; conditions: 37° C.
Method: Acid soluble human collagen type I extracted from placenta (Sigma, cat# C7774, lot#083K375) was dissolved in 15 mM HCl (3.5 mg/mL) by vortexing and gently shaking for 3-4 hours at 4° C. The acid soluble collagen was dialyzed against PBS (pH 7.4). Protein concentration was determined by the BCA method (Pierce, Cat#23225) using bovine collagen (Vitrogen, cat#FXP-019) as a reference standard. The final collagen concentration for the stock solution was 9 μM.
Rat collagen (acid soluble, type I, rat tail, Upstate USA, Inc. Cat# 08-115) was dialyzed against 10 mM Phosphate buffer (NaH2PO4, pH 4.2). The final collagen concentration for the stock solution was approx. 12 μM.
as §1
T1 was determined for samples 1, 2, 3, 6, 7, 9, 10 at 0.47 Tesla using a Bruker NMS120 minispec NMR analyzer operating at 37° C.

[6] = Biodistribution (heart, blood) after tail vein injection, radiotracer counting; type: in vivo, Sprague-Dawley rats; conditions: for Blood (% ID/g) / Heart (% ID/g): rat, 0.5 μmol/kg tail vein
Method: Concentration estimates were decay corrected. Studies were performed at least in duplicate.

[7] = system: perfused Langendorff rat heart; test: Equilibrium binding to perfused Langendorff rat heart
Method: After deep anesthesia with pentobarbital (80 mg/kg ip), the chest cavity of a male Sprague Dawley rat (300 g) was opened, retracted and the heart was removed immediately and placed in an ice-cold normal Krebs-Henseleit (K-H) solution (NaCl, 118 mM; KCl, 4.7 mM; CaCl2, 2.5 mM; MgSO4, 1.2 mM; KH2PO4, 1.2 mM; NaHCO3, 25 mM; glucose, 5.5 mM). A K-H buffer filled 20 Gauge needle was inserted into the apex of the heart penetrating into the bottom of the chamber. This was attached to a pressure transducer used to record and monitor heart function. Perfusion pressure (60 mmHg) was monitored using a second transducer. The heart was perfused at a constant flow rate of 10-12 mL/min with 37° C. Krebs-Henseleit buffer saturated with a mixture of 95% O2 and 5% CO2 gas. The heart was paced at 300 beats/min.
Two peptide test articles, a high collagen binding peptide (SEQ ID NO: 144) and a low collagen binding peptide (SEQ ID NO: 173), are compared to GdDTPA. The appropriate test article was added to the K-H buffer solution to a total concentration of either 3 or 30 μM. Also added to the K-H buffer was a radiotracer analog of each peptide or GdDTPA. For the peptides, the radiotracer was an aliquot of the appropriate I-125 labeled peptide derivative (see Example 5 for protocol). For GdDTPA, the tracer added was Tc-99m labeled DTPA. The amount of radioactivity added to the buffer solution was 1-5 μCi.
The heart was perfused for a period of 10 minutes and the perfusion solution was recycled through the heart. The total volume of K-H buffer used was 50-60 mL. After 10 min, the heart was removed from the apparatus and any connective tissue was removed. The heart was opened, fluid in the chambers drained, and the interior blotted dry with filter paper. The heart was then weighed and the radioactivity in the heart measured with a Packard Cobra 5003 Gamma Scintillation counter. An aliquot of the K-H buffer was also weighed and counted. Studies were performed at least in duplicate.
The dual peptide gadolinium tetramer (Compound ID 803) was compared to GdDTPA. Compound ID 803 and GdDTPA were added to the K-H buffer solution to a total concentration of 3 μM. Also added to the K-H buffer was a radiotracer analog of Compound ID 803 or GdDTPA. For Compound ID 803, the radiotracer was an aliquot of the In-111 labeled compound. For GdDTPA, the tracer added was Tc-99m labeled DTPA. The amount of radioactivity added to the buffer solution was 1-5 μCi.

Structure (SMILES): CC(C)C[C@H](NC(=O)[C@@H]1CSSC[C@H](NC(=O)[C@H](Cc2c[nH]cn2)NC(=O)[C@H](Cc2c[nH]c3ccccc23)NC(=O)[C@H](CCCCNC(=O)CNC(=S)Nc2ccc(C[C@@H](CN(CCN(CC(=O)O)CC(=O)O)CC(=O)O)N(CC(=O)O)CC(=O)O)cc2)NC(=O)CNC(=S)Nc2ccc(C[C@@H](CN(CCN(CC(=O)O)CC(=O)O)CC(=O)O)N(CC(=O)O)CC(=O)O)cc2)C(=O)N[C@@H]([C@@H](C)O)C(=O)N[C@@H]([C@@H](C)O)C(=O)N[C@@H](CCCCNC(=S)Nc2ccc(C[C@@H](CN(CCN(CC(=O)O)CC(=O)O)CC(=O)O)N(CC(=O)O)CC(=O)O)cc2)C(=O)N[C@@H](Cc2ccccc2)C(=O)N2CCC[C@H]2C(=O)N[C@@H](Cc2c[nH]cn2)C(=O)N[C@@H](Cc2c[nH]cn2)C(=O)N[C@@H](Cc2ccc(O)cc2)C(=O)N1)C(=O)N[C@@H](Cc1ccc(O)cc1)C(=O)N[C@@H](Cc1ccc(-c2ccccc2)cc1)C(N)=O [Compound ID 800]
MR appearance of infarct zone (infarcted myocardium [1]): infarct zone as hyperintense relative to the normal, viable myocardium
Gadolinium concentrations in the blood [2]: 14.3±2.3 nmol Gd/g tissue
Gadolinium concentrations in the heart [2]: 25.5±2.0 nmol Gd/g tissue
enhancement of infarcted zones (infarcted myocardium [3]): hyperenhancement of infarcted zones
persistence of the enhancement (infarcted myocardium [3]): at least 1 hour

T1 ([5]; in 5.0 μM rat collagen gel, 10 μM Compound ID 1022 or 27 μM GdDTPA): 2.410 s
T1 ([5]; in PBS pH 7.4, 10 μM Compound ID 1022 or 27 μM GdDTPA): 2.437 s
Heart:Blood ([6]; 1 min post injection): 0.26
Heart:Blood ([6]; 5 min post injection): 0.26
Blood (% ID/g) ([6]; 1 min post injection): 1.2 ± 0.2 % ID/g
Heart (% ID/g) ([6]; 1 min post injection): 0.32 ± 0.02 % ID/g
Blood (% ID/g) ([6]; 5 min post injection): 0.67 ± 0.12 % ID/g
Heart (% ID/g) ([6]; 5 min post injection): 0.17 ± 0.08 % ID/g
Heart:Buffer ([7]; buffer 3.0 μM): 0.42 ± 0.06
Heart ([7]; buffer 3.0 μM, 10 minutes recirculating perfusion): 1.3 ± 0.3 nmol/g
Heart:Buffer ([7]; buffer 30 μM): 0.46 ± 0.03
Heart ([7]; buffer 30 μM, 10 minutes recirculating perfusion): 14 ± 1.0 nmol/g
Heart ([7]; perfused Langendorff rat heart, 3 μM compound in recirculated K-H buffer, 10 min perfusion, radiotracer counting): 1.4 ± 0.02 nmol/g
Heart:Buffer ([7]; ratio of heart concentration to buffer concentration (3.0 μM), 10 min perfusion): 0.46 ± 0.05
Structure (SMILES): O=C([O-])CN(CCN(CC(=O)[O-])CC(=O)O)CCN(CC(=O)[O-])CC(=O)O.[Gd+3] [GdDTPA, gadolinium diethylenetriaminepentaacetate, reference compound]
Heart (% ID/g) ([4]; 0 min after infusion): 2.9 ± 1.5 % ID/g
Heart (% ID/g) ([4]; 10 min after infusion, non-recirculated buffer): 0.014 ± 0.002 % ID/g
Heart (% ID/g) ([4]; time after infusion 0 min, 1 mL of 300 μM infused at 1 mL/min, buffer not recirculated): 2.53 ± 0.50 % ID/g
Heart (% ID/g) ([4]; time after infusion 10 min, 1 mL of 300 μM infused at 1 mL/min, buffer not recirculated): 0.056 ± 0.011 % ID/g
MR signal of centrifuged collagen gel pellet versus supernatant (rat type I collagen gel): no increased concentration of GdDTPA in the gel relative to the supernatant
